Measurements from ChEMBL document CHEMBL1201862, “PubChem BioAssay data set” (2004).
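Briefly, cells in 96-well plates were exposed to five compound concentrations for 48 h, and endpoints were estimated by linear interpolation. The concentration for 50% growth inhibition is given as GI50.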 Calls of active or inactive are those of the source. Cut-off read from the data, not from the text of the source: active = GI50 up to about 1.1 µM and inactive = higher.

Legend:
Assay in all cases: inhibition of tumour cell growth, NCI panel, 48 h
SK-OV-3 = system: SK-OV-3
U-251 = system: U-251
HL-60 = system: HL-60
OVCAR-8 = system: OVCAR-8
UO-31 = system: UO-31
KM-20L2 = system: KM-20L2
ACHN = system: ACHN
OVCAR-3 = system: OVCAR-3
HOP-18 = system: HOP-18
SNB-19 = system: SNB-19
K562 = system: K562
DMS-273 = system: DMS-273
A549 = system: A549
OVCAR-5 = system: OVCAR-5
SK-MEL-2 = system: SK-MEL-2
SK-MEL-5 = system: SK-MEL-5
LOX IMVI = system: LOX IMVI
HCT-15 = system: HCT-15
KM12 = system: KM12
RPMI-8226 = system: RPMI-8226
M14 = system: M14
786-0 = system: 786-0
NCI-H23 = system: NCI-H23
HT-29 = system: HT-29
SNB-75 = system: SNB-75
OVCAR-4 = system: OVCAR-4
MOLT-4 = system: MOLT-4
COLO 205 = system: COLO 205
NCI-H226 = system: NCI-H226
CCRF-CEM = system: CCRF-CEM
TK-10 = system: TK-10
HCC 2998 = system: HCC 2998
XF498 = system: XF498
UACC-257 = system: UACC-257
SK-MEL-28 = system: SK-MEL-28
Malme-3M = system: Malme-3M
SW-620 = system: SW-620
LXFL 529 = system: LXFL 529
SF-295 = system: SF-295
RXF 393 = system: RXF 393
RXF 631 = system: RXF 631
NCI-H460 = system: NCI-H460
HOP-92 = system: HOP-92
NCI-H522 = system: NCI-H522
IGROV-1 = system: IGROV-1
M19-MEL = system: M19-MEL
SF-539 = system: SF-539
CAKI-1 = system: CAKI-1
DLD-1 = system: DLD-1
SN12C = system: SN12C
UACC-62 = system: UACC-62
SF-268 = system: SF-268
EKVX = system: EKVX
A498 = system: A498
HOP-62 = system: HOP-62
SNB-78 = system: SNB-78
HCT-116 = system: HCT-116
DMS-114 = system: DMS-114
SR = system: SR

O=C(O)CCNS(=O)(=O)c1ccc([N+](=O)[O-])cc1
GI50 (SK-OV-3): > 100 µM (inactive) | GI50 (U-251): > 100 µM (inactive) | GI50 (HL-60): > 100 µM (inactive) | GI50 (OVCAR-8): > 100 µM (inactive) | GI50 (UO-31): 66.8 µM (inactive) | GI50 (KM-20L2): > 100 µM (inactive) | GI50 (ACHN): > 100 µM (inactive) | GI50 (OVCAR-3): > 100 µM (inactive) | GI50 (HOP-18): > 100 µM (inactive) | GI50 (SNB-19): > 100 µM (inactive) | GI50 (K562): > 100 µM (inactive) | GI50 (DMS-273): > 100 µM (inactive) | GI50 (A549): > 100 µM (inactive) | GI50 (OVCAR-5): > 100 µM (inactive) | GI50 (SK-MEL-2): > 100 µM (inactive) | GI50 (SK-MEL-5): > 100 µM (inactive) | GI50 (LOX IMVI): > 100 µM (inactive) | GI50 (HCT-15): > 100 µM | GI50 (KM12): > 100 µM (inactive) | GI50 (RPMI-8226): > 100 µM (inactive) | GI50 (M14): > 100 µM (inactive) | GI50 (786-0): > 100 µM (inactive) | GI50 (NCI-H23): > 100 µM (inactive) | GI50 (HT-29): > 100 µM (inactive) | GI50 (SNB-75): > 100 µM (inactive) | GI50 (OVCAR-4): > 100 µM (inactive) | GI50 (MOLT-4): > 100 µM (inactive) | GI50 (COLO 205): > 100 µM (inactive) | GI50 (NCI-H226): > 100 µM (inactive) | GI50 (CCRF-CEM): > 100 µM (inactive) | GI50 (TK-10): > 100 µM (inactive) | GI50 (HCC 2998): > 100 µM (inactive) | GI50 (XF498): > 100 µM (inactive) | GI50 (UACC-257): > 100 µM (inactive) | GI50 (SK-MEL-28): > 100 µM (inactive) | GI50 (Malme-3M): > 100 µM (inactive) | GI50 (SW-620): > 100 µM (inactive) | GI50 (LXFL 529): > 100 µM (inactive) | GI50 (SF-295): > 100 µM (inactive) | GI50 (RXF 393): > 100 µM (inactive) | GI50 (RXF 631): > 100 µM (inactive) | GI50 (NCI-H460): > 100 µM (inactive) | GI50 (HOP-92): > 100 µM (inactive) | GI50 (NCI-H522): > 100 µM (inactive) | GI50 (IGROV-1): > 100 µM (inactive) | GI50 (M19-MEL): > 100 µM (inactive) | GI50 (SF-539): > 100 µM (inactive) | GI50 (CAKI-1): > 100 µM (inactive) | GI50 (DLD-1): > 100 µM (inactive) | GI50 (SN12C): > 100 µM (inactive) | GI50 (UACC-62): > 100 µM (inactive) | GI50 (SF-268): > 100 µM (inactive) | GI50 (EKVX): > 100 µM (inactive) | GI50 (A498): > 100 µM (inactive)

NC1=C2C(Br)=CN([C@@H]3O[C@H](CO)[C@@H](O)[C@@H]3O)C2C(=O)N=N1 (stereo not given in full)
GI50 (SK-OV-3): 30.5 µM (inactive) | GI50 (U-251): 8.79 µM (inactive) | GI50 (HL-60): 0.223 µM (active) | GI50 (OVCAR-8): 0.577 µM (active) | GI50 (UO-31): 4.85 µM (inactive) | GI50 (KM-20L2): 22.2 µM (inactive) | GI50 (ACHN): 9.04 µM (inactive) | GI50 (OVCAR-3): 0.811 µM (active) | GI50 (HOP-18): 5.68 µM (inactive) | GI50 (SNB-19): 43.1 µM (inactive) | GI50 (K562): 6.67 µM (inactive) | GI50 (DMS-273): 1.97 µM (inactive) | GI50 (A549): 2.67 µM (inactive) | GI50 (OVCAR-5): 2.28 µM (inactive) | GI50 (SK-MEL-2): 14.8 µM (inactive) | GI50 (SK-MEL-5): 11.3 µM (inactive) | GI50 (HOP-62): 15.1 µM (inactive) | GI50 (SNB-78): 30.9 µM (inactive) | GI50 (LOX IMVI): 1.03 µM (active) | GI50 (HCT-116): 1.82 µM (inactive) | GI50 (HCT-15): 1.25 µM | GI50 (KM12): 7.38 µM (inactive) | GI50 (RPMI-8226): 1.94 µM (inactive) | GI50 (M14): 1.27 µM (inactive) | GI50 (786-0): 12.4 µM (inactive) | GI50 (NCI-H23): 5.58 µM (inactive) | GI50 (HT-29): 2.42 µM (inactive) | GI50 (SNB-75): 3.78 µM (inactive) | GI50 (OVCAR-4): 2.44 µM (inactive) | GI50 (MOLT-4): 0.395 µM (active) | GI50 (COLO 205): 7.93 µM (inactive) | GI50 (NCI-H226): 18.2 µM (inactive) | GI50 (CCRF-CEM): 0.526 µM (active) | GI50 (TK-10): 15.4 µM (inactive) | GI50 (DMS-114): 4.94 µM (inactive) | GI50 (HCC 2998): 5.02 µM (inactive) | GI50 (UACC-257): 22.4 µM (inactive) | GI50 (SK-MEL-28): 7.73 µM (inactive) | GI50 (Malme-3M): 6.89 µM (inactive) | GI50 (SW-620): 1.15 µM (inactive) | GI50 (SR): 475 nM (active) | GI50 (LXFL 529): 8.47 µM (inactive) | GI50 (SF-295): 15.8 µM (inactive) | GI50 (RXF 393): 2.28 µM (inactive) | GI50 (RXF 631): 0.516 µM (active) | GI50 (NCI-H460): 1.49 µM (inactive) | GI50 (HOP-92): 2.51 µM (inactive) | GI50 (NCI-H522): 6.05 µM (inactive) | GI50 (IGROV-1): 3.99 µM (inactive) | GI50 (M19-MEL): 15.5 µM (inactive) | GI50 (SF-539): 5.32 µM (inactive) | GI50 (CAKI-1): 0.396 µM (active) | GI50 (DLD-1): 0.76 µM (active) | GI50 (SN12C): 1.64 µM (inactive) | GI50 (UACC-62): 16.6 µM (inactive) | GI50 (SF-268): 9.51 µM (inactive) | GI50 (EKVX): 5.93 µM (inactive) | GI50 (A498): 40.4 µM (inactive)

CCOC(=O)C1S/C(=N\c2ccc(Cl)c(Cl)c2)N=C1C (stereo not given)
GI50 (SK-OV-3): 53.8 µM (inactive) | GI50 (U-251): 48.3 µM (inactive) | GI50 (HL-60): 20.4 µM (inactive) | GI50 (OVCAR-8): 35.4 µM (inactive) | GI50 (UO-31): 92.9 µM (inactive) | GI50 (KM-20L2): 20.9 µM (inactive) | GI50 (ACHN): 29.5 µM (inactive) | GI50 (OVCAR-3): 17.9 µM (inactive) | GI50 (HOP-18): 96.8 µM (inactive) | GI50 (SNB-19): 45.6 µM (inactive) | GI50 (K562): 13.4 µM (inactive) | GI50 (DMS-273): 41.2 µM (inactive) | GI50 (A549): 28.4 µM (inactive) | GI50 (OVCAR-5): 44.1 µM (inactive) | GI50 (SK-MEL-2): 95.1 µM (inactive) | GI50 (HOP-62): 56.9 µM (inactive) | GI50 (LOX IMVI): 23.4 µM (inactive) | GI50 (HCT-15): 20.8 µM | GI50 (KM12): 27.9 µM (inactive) | GI50 (RPMI-8226): 17.8 µM (inactive) | GI50 (M14): 34.6 µM (inactive) | GI50 (786-0): 17.5 µM (inactive) | GI50 (NCI-H23): 36.7 µM (inactive) | GI50 (HT-29): 19.7 µM (inactive) | GI50 (SNB-75): 29.9 µM (inactive) | GI50 (OVCAR-4): 20.3 µM (inactive) | GI50 (MOLT-4): 18.8 µM (inactive) | GI50 (COLO 205): 29 µM (inactive) | GI50 (NCI-H226): 23.4 µM (inactive) | GI50 (CCRF-CEM): 13.2 µM (inactive) | GI50 (TK-10): 76.7 µM (inactive) | GI50 (HCC 2998): > 100 µM (inactive) | GI50 (XF498): 35.6 µM (inactive) | GI50 (UACC-257): 87.1 µM (inactive) | GI50 (SK-MEL-28): 73.8 µM (inactive) | GI50 (Malme-3M): 51.6 µM (inactive) | GI50 (SW-620): 38 µM (inactive) | GI50 (LXFL 529): 34.4 µM (inactive) | GI50 (SF-295): 29.7 µM (inactive) | GI50 (RXF 393): 13 µM (inactive) | GI50 (RXF 631): 58.6 µM (inactive) | GI50 (NCI-H460): 49.8 µM (inactive) | GI50 (NCI-H522): 24.7 µM (inactive) | GI50 (IGROV-1): 48.8 µM (inactive) | GI50 (M19-MEL): 26.2 µM (inactive) | GI50 (SF-539): 34 µM (inactive) | GI50 (CAKI-1): 35.1 µM (inactive) | GI50 (DLD-1): 25.1 µM (inactive) | GI50 (SN12C): 19.6 µM (inactive) | GI50 (UACC-62): 96.8 µM (inactive) | GI50 (SF-268): 54.6 µM (inactive) | GI50 (EKVX): > 100 µM (inactive) | GI50 (A498): 26 µM (inactive)
